Assay results published in patent EP3748362A1, “IN VITRO METHOD FOR DETECTING RENAL DISEASE” (Fundacion Instituto De Investigacion Sanitaria Fundacion …, priority 2019, dated 2020).
“Also recorded” adds a separate entry of the source.

How the values were obtained:
[1] = system: NF-κB1; experiment: Canonical NF-κB1 activation (western blot) in TWEAK-stimulated HK2 cells; type: cell-based, Human; conditions: 12 µM paricalcitol for 48 hours, TWEAK 100 ng/ml 15 min, p65 and IκBα phosphorylation
Method: (§1) Human kidney proximal tubule epithelial cells (HK2 cell line, ATCC CRL-2190) were grown in RPMI 1640 with 10% fetal bovine serum (FBS), 1% glutamine, 100 U/ml penicillin, 100 µg/ml streptomycin, 5 µg/ml insulin-transferrin-selenite and 36 ng/ml hydrocortisone in 5% CO2 at 37° C. When cells reached 60 to 70% confluence, they were serum-depleted for 24 hours before the experiment.
(§2) Cells were stimulated with 100ng/ml recombinant human soluble TWEAK (Millipore) or p-200 µg/ml cresyl-sulfate (Raymond Vanholder and Griet Glorieux, University of Gent, Belgium). Concentrations of TWEAK and p-cresyl-sulfate were based on previously published dose-response experiments (Poveda et al. 2014; Sanz et al. 2008). In some experiments cells were preincubated for 48 hours with the paricalcitol 12 µmol/L (Abbott) prior to stimulation. DMSO, used as a solvent in some cases, had no effect on cell viability or on gene expression levels.
(§3) For western blot, cell (25 µg/lane) and kidney (100-150 µg/lane) protein extracts were separated on 6%-12% polyacrylamide-SDS gels under reducing conditions. […] Autoradiographs were scanned using the Gel Doc™ EZ imager and analyzed with the Image Lab 3.0 software (BioRad).

[2] = system: NF-κB2; experiment: Non-canonical NF-κB2 activation (western blot) in TWEAK-stimulated HK2 cells; type: cell-based, Human; conditions: 12 µM paricalcitol for 48 hours, TWEAK 100 ng/ml 6 hours
Method: as §1, §2, §3

[3] = system: NF-κB 1 pathway; experiment: Canonical NF-κB1 activation in TWEAK-stimulated PBMCs from healthy donors; type: cell-based, Human; conditions: 12 µM paricalcitol, TWEAK 100 ng/ml, phosphorylated p65
[4] = system: CCL2, CCL5 and IL6, CCL21A and CCL19; experiment: Proinflammatory gene expression (real time PCR) in TWEAK-stimulated PBMCs from healthy donors; type: cell-based, Human; conditions: 15 µmol/L paricalcitol 48 hours, TWEAK 100 ng/mL 6 hours
[5] = system: NF-κB2; experiment: Non-canonical NF-κB2 activation and NF-κB2 targets in obstructed kidneys (UUO) in mice; type: in vivo; conditions: paricalcitol 750 ng/kg/day
Method: (§4) All animal procedures were performed according to the guidelines of animal research in the European Community and with prior approval by the Ethics Committee of the Health Research of the IIS-Fundacion Jiménez Díaz. For in vivo studies, mice received a daily intraperitoneal injection of the VDRA Paricalcitol starting 48 hours prior to induction of kidney damage.
(§5) At the time of sacrifice, animals were anesthetized with 5 mg/kg xylazine (Rompun, Bayer AG) and 35 mg/kg ketamine (Ketolar, Pfizer) and the kidneys perfused in situ with cold saline before removal. Then, kidney portions were fixed in formalin buffer for immunohistochemistry studies or immediately frozen in liquid nitrogen for gene and protein studies.
Unilateral ureteral obstruction (UUO) was established in male C57BL/6 mice, under isoflurane-induced anesthesia. The left ureter was ligated with silk (5/0) at two locations and cut between ligatures to prevent urinary tract infection (obstructed kidney).(Ucero et al 2014; Rodrigues-Díez et al 2013) Two groups were studied; untreated or paricalcitol treated (750 ng/kg/day, i.p., Abbot), n=6-8 mice per group, starting 48 hours before surgery. Studies compared both kidneys (contralateral vs. obstructed) in each mouse.
(§6) Paraffin-embedded kidney sections (3 µm) were stained using conventional methods. […] For each sample (processed by duplicate in a blinded manner), the average value was obtained from the analysis of 4 fields (20X objective) as density/mm2 or percentage stained area vs total analyzed area. Data are expressed as fold increase over control mice, as mean ± SEM of 8-10 animals per group. […]
(§7) For western blot, cell (25 µg/lane) and kidney (100-150 µg/lane) protein extracts were separated on 6%-12% polyacrylamide-SDS gels under reducing conditions. […] Autoradiographs were scanned using the Gel Doc™ EZ imager and analyzed with the Image Lab 3.0 software (BioRad). […]

[6] = system: renal inflammation induced by folic acid; experiment: Renal inflammatory cell infiltration, folic acid-induced renal injury in mice; type: in vivo; conditions: folic acid 300 mg/kg model; paricalcitol 25 µg/kg/day i.p.; anti-F4/80 and anti-CD3 immunohistochemistry
Method: as §4, §5
Folic acid nephropathy is a classical model of kidney tubulointerstitial injury and inflammation that has been reported in humans. Mice received a single intraperitoneal injection of folic acid (Sigma) 300 mg/kg in 0.3 mol/l sodium bicarbonate or vehicle, and were sacrificed 48 hours later. […]
as §6

[7] = system: NF-κB2; experiment: Non-canonical NF-κB2 activation and dependent cytokines, folic acid-induced renal injury in mice; type: in vivo; conditions: folic acid 300 mg/kg model; paricalcitol 25 µg/kg/day i.p.
Method: as §4
as §5, with “studies. […]” for “studies.”
as §6, §7

[8] = Renal function (serum BUN), folic acid-induced renal injury in mice; type: in vivo; conditions: folic acid 300 mg/kg model; paricalcitol 25 µg/kg/day i.p.
Method: as §4
Folic acid nephropathy is a classical model of kidney tubulointerstitial injury and inflammation that has been reported in humans. Mice received a single intraperitoneal injection of folic acid (Sigma) 300 mg/kg in 0.3 mol/l sodium bicarbonate or vehicle, and were sacrificed 48 hours later. Two groups were studied; untreated or paricalcitol treated (25 µg/kg/day, i.p., Abbot), n=7-8 per group starting 48 hours before FA injection. The dose of paricalcitol was chosen based on dose-finding preliminary experiments.

- p100/p52 processing, and p52 nuclear translocation and DNA binding activity [5]: blocked
Structure (SMILES): C[C@H](/C=C/[C@H](C)C(C)(C)O)[C@H]1CC[C@H]2/C(=C/C=C3C[C@@H](O)C[C@H](O)C3)CCC[C@]12C [paricalcitol]
- TWEAK-induced NF-κB1 activation [1]: did not modulate
- TWEAK-induced IKK-α phosphorylation, the increase in NIK, and p52 and RelB nuclear levels [2]: inhibited
- canonical NF-κB 1 pathway [3]: without modulating
- TWEAK-induced upregulation of several proinflammatory genes, such as CCL2, CCL5 and IL6, as well as the NF-κB2-controlled genes CCL21A and CCL19 [4]: inhibited
- increased RelB levels and its nuclear localization [5]: prevented
- increased expression of specific NF-κB2-regulated chemokines, including CCL21A and CCL19 ([5]; real time PCR): prevented
- renal inflammatory cell infiltration [6]: prevented
- NF-κB2 activation, as determined by RelB and p52 levels, nuclear translocation and RelB DNA-binding activity [7]: decreased; also recorded: blocked
- gene and protein expression of NF-κB2-dependent cytokines, such as CCL21A, as well as other pro-inflammatory factors [7]: blocked
- renal function assessed by serum BUN levels [8]: restored changes in renal function
